# Source: patent US20250129073A1, “INHIBITOR OF RECEPTOR-INTERACTING PROTEIN KINASE 1, AND PREPARATION METHOD AND USE THEREFOR” (CHINA PHARMACEUTICAL UNIVERSITY, priority 2021, published 2025)
# Target: RIPK1 kinase (Homo sapiens (Human), UniProt Q13546)
# Assay: RIPK1 kinase inhibitory assay (ADP-Glo)
# Assay type: biochemical
# Details: not given
# Experimental: Materials and Instruments: ADP-Glo kinase kit (purchased from Promega), RIPK1 GST-Th-Tag (purchased from Bps Bioscience), MBP substrate (purchased from Millipore), nunc 384-well plate, ATP fluorescence analyzer Paradigm detection platform (purchased from Beckman coulter)
# The compounds were diluted in DMSO and configured into a solution with a final concentration of 10 mM; Dilute RIP1 kinase from 140 ng/μL to 20 ng/μL for use. Dilute 10 mM of ATP to 100 μM for later use; Dilute 5 mg/mL of MBP to 1 mg/mL for later use. Appropriate embodiments were added into the well of the 384-well plate, 10 μl […] ATP was evenly mixed with 1 μl 1 mg/mL MB P, the mixed solution was added to the well, and 2 μL […] RIP1 kinase was added to the hole, and then incubated at room temperature for 1 h. Subsequently, 5 μL ADP-Glo reagent was added to each well and incubated at room temperature for 40 min. Then, 10 μL ADP-Glo detection reagent was added to each well and incubated at room temperature for 30 min. Finally, the RLU value (relative light unit) of each well was measured by ATP fluorometer, and each sample was repeated twice. Inhibition rate=(RLU value of blank group−RLU value of drug administration group)/RLU value of blank group×100%.
# Chain of RIPK1 kinase (Q13546 whole entry): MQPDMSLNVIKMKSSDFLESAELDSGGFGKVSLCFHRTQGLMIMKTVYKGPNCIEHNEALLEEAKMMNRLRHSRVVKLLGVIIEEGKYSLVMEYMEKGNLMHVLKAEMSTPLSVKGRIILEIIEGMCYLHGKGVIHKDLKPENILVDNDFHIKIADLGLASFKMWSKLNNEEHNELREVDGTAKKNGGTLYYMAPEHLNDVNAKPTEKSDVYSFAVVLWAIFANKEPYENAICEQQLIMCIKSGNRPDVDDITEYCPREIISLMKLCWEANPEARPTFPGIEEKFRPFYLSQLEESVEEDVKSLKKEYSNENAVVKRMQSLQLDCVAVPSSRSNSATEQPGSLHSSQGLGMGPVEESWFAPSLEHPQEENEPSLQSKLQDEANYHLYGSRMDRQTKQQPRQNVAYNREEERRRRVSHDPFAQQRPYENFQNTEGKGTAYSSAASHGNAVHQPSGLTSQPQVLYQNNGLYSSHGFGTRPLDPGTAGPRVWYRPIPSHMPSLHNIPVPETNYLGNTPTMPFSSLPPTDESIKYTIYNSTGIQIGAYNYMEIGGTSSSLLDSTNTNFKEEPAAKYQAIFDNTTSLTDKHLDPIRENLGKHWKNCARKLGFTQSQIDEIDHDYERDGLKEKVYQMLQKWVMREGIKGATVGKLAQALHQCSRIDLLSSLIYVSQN
row,IC50 [µM],SMILES
1,1.14,"CN1C(=O)C(Cc2c[nH]c3ccccc23)NC1=S (stereo not shown) [Nec-1, reference compound]"

# Same assay, conditions: 10 μM compound; read-out: Inhibition rate of RIPK1 at 10 μM (%)
row,inhibition at 10 µM [%],SMILES
1,41,"O=C1N(Cc2cc(F)ccc2F)CCC12CCN(c1ncccn1)CC2 [Compound 51, 2-(2,5-difluorobenzyl)-8-(pyrimidin-2-yl)-2,8-diazaspiro[4.5]decan-1-one]"
2,> 50,"N#Cc1ccnc(N2CCC3(CCN(Cc4cc(F)ccc4F)C3=O)CC2)n1 [Compound 52, 2-(2-(2,5-difluorobenzyl)-1-oxo-2,8-diazaspiro[4.5]decan-8-yl) pyrimidine-4-carbonitrile]"
3,> 50,"O=C(c1ccccc1)N1CCC2(CC1)CCN(Cc1cc(F)cc(F)c1F)C2=O [Compound 53, 8-benzoyl-2-(2,3,5-trifluorobenzyl)-2,8-diazaspiro[4.5]decan-1-one]"
4,6,"N#Cc1ccccc1CN1CCC2(CCN(C(=O)c3ccccc3)CC2)C1=O [Compound 54, 2-((8-benzoyl-1-oxo-2,8-diazaspiro[4.5]decan-2-yl)methyl) benzonitrile]"
5,13,"Cc1nnc(N2CCC3(CCN(Cc4cc(F)ccc4F)C3=O)CC2)o1 [Compound 55, 2-(2,5-difluorobenzyl)-8-(5-methyl-1,3,4-oxadiazol-2-yl)-2,8-diazaspiro[4.5]decan-1-one]"
6,17,"N#Cc1ccc(N2CCC3(CCN(Cc4cc(F)ccc4F)C3=O)CC2)nn1 [Compound 56, 6-(2-(2,5-difluorobenzyl)-1-oxo-2,8-diazaspiro[4.5]decan-8-yl)pyridazine-3-carbonitrile]"
7,25,"N#Cc1ccc(F)cc1CN1CCC2(CCN(C(=O)c3ccccc3)CC2)C1=O [Compound 57, 2-((8-benzoyl-1-oxo-2,8-diazaspiro[4.5]decan-2-yl)methyl)-4-fluorobenzonitrile]"
8,> 50,"N#Cc1cc(N2CCC3(CCN(Cc4cc(F)ccc4F)C3=O)CC2)ncn1 [Compound 58, 6-(2-(2,5-difluorobenzyl)-1-oxo-2,8-diazaspiro[4.5]decan-8-yl)pyrimidine-4-carbonitrile]"
9,38,"O=C(c1ccccc1)N1CCC2(CC1)N=CN(Cc1ccccc1)C2=O [Compound 59, 8-benzoyl-3-benzyl-1,3,8-triazaspiro[4.5]dec-1-en-4-one]"
10,> 50,"O=C(c1ccccc1)N1CCC2(CC1)N=CN(Cc1ccccc1F)C2=O [Compound 60, 8-benzoyl-3-(2-fluorobenzyl)-1,3,8-triazaspiro[4.5]dec-1-en-4-one]"
11,> 50,"O=C(c1ccccc1)N1CCC2(CC1)N=CN(Cc1cc(F)ccc1F)C2=O [Compound 61, 8-benzoyl-3-(2,5-difluorobenzyl)-1,3,8-triazaspiro[4.5]dec-1-en-4-one]"
12,> 50,"O=C(c1ccccc1)N1CCC2(C=NN(Cc3ccccc3)C2=O)CC1 [Compound 62, 8-benzoyl-2-benzyl-2,3,8-triazaspiro[4.5]dec-3-en-1-one]"
13,> 50,"O=C(c1ccccc1)N1CCC2(C=NN(Cc3ccccc3F)C2=O)CC1 [Compound 63, 8-benzoyl-2-(2-fluorobenzyl)-2,3,8-triazaspiro[4.5]dec-3-en-1-one]"
14,> 50,"O=C(c1ccccc1)N1CCC2(C=NN(Cc3cccc(F)c3)C2=O)CC1 [Compound 64, 8-benzoyl-2-(3-fluorobenzyl)-2,3,8-triazaspiro[4.5]dec-3-en-1-one]"
15,27,"O=C(c1ccccc1)N1CCC2(C=NN(Cc3ccc(F)cc3)C2=O)CC1 [Compound 65, 8-benzoyl-2-(4-fluorobenzyl)-2,3,8-triazaspiro[4.5]dec-3-en-1-one]"
16,> 50,"O=C(c1ccccc1)N1CCC2(C=NN(Cc3cc(F)ccc3F)C2=O)CC1 [Compound 66, 8-benzoyl-2-(2,5-difluorobenzyl)-2,3,8-triazaspiro[4.5]dec-3-en-1-one]"
17,> 50,"O=C(c1ccccc1)N1CCC2(C=NN(Cc3cc(F)cc(F)c3)C2=O)CC1 [Compound 67, 8-benzoyl-2-(3,5-difluorobenzyl)-2,3,8-triazaspiro[4.5]dec-3-en-1-one]"
18,13,"O=C(c1ccccc1)N1CCC2(C=NN(Cc3cccc(C(F)(F)F)c3)C2=O)CC1 [Compound 68, 8-benzoyl-2-(3-(trifluoromethyl)benzyl)-2,3,8-triazaspiro[4.5]dec-3-en-1-one]"
19,9,"N#Cc1ccc(CN2N=CC3(CCN(C(=O)c4ccccc4)CC3)C2=O)cc1 [Compound 69, 4-((8-benzoyl-1-oxo-2,3,8-triazaspiro[4.5]dec-3-en-2-yl)methyl) benzonitrile]"
20,44,"O=C(c1ccccc1)N1CCC2(C=NN(Cc3cccc(Cl)c3)C2=O)CC1 [Compound 70, 8-benzoyl-2-(3-chlorobenzyl)-2,3,8-triazaspiro[4.5]dec-3-en-1-one]"
21,31,"O=C(c1ccccc1)N1CCC2(CC1)CNN(Cc1ccccc1)C2=O [Compound 71, 8-benzoyl-2-benzyl-2,3,8-triazaspiro[4.5]decan-1-one]"
22,40,"O=C(c1ccccc1)N1CCC2(CC1)CNN(Cc1ccccc1F)C2=O [Compound 72, 8-benzoyl-2-(2-fluorobenzyl)-2,3,8-triazaspiro[4.5]decan-1-one]"
23,> 50,"O=C(c1ccccc1)N1CCC2(CCCN(Cc3ccccc3)C2=O)CC1 [Compound 74, 9-benzoyl-2-benzyl-2,9-diazaspiro[5.5]undecan-1-one]"
24,> 50,"O=C(c1cscn1)N1CCC2(CC1)CCN(Cc1cc(F)ccc1F)C2=O [Compound 75, 2-(2,5-difluorobenzyl)-8-(thiazole-4-carbonyl)-2,8-diazaspiro [4.5]decan-1-one]"
25,> 50,"O=C(c1ccc2ccoc2c1)N1CCC2(CC1)CCN(Cc1cc(F)ccc1F)C2=O [Compound 76, 8-(benzofuran-6-carbonyl)-2-(2,5-difluorobenzyl)-2,8-diazaspiro [4.5]decan-1-one]"
26,> 50,"COc1cccc(C(=O)N2CCC3(CC2)CCN(Cc2cc(F)ccc2F)C3=O)c1 [Compound 77, 2-(2,5-difluorobenzyl)-8-(3-methoxybenzoyl)-2,8-diazaspiro[4.5]decan-1-one]"

row,SMILES,inhibition at 10 µM [%]
1,"O=C(c1ccccc1)N1CCC2(CC1)CN(Cc1ccccc1)C2=O [Compound 73, 7-benzoyl-2-benzyl-2,7-diazaspiro[3.5]nonan-1-one]",45
